Source: the supplement of paper PMC10307832

Columns and labels:
Assay in all cases: relative viability (nuclei count vs DMSO), 5 days (fraction); higher = more cells survive
IU1-47 + Foretinib = compound: CC1=CC(=C(N1C2=CC=C(C=C2)Cl)C)C(=O)CN3CCCCC3 [IU1-47] + COc1cc2c(Oc3ccc(NC(=O)C4(C(=O)Nc5ccc(F)cc5)CC4)cc3F)ccnc2cc1OCCCN1CCOCC1 [Foretinib] (partner 0.25 µM)
Summary of the method: (§1)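 Each reported value is a median over duplicate plates. It expresses relative viability: treated-well nuclei count divided by vehicle-well nuclei count. Lung cancer cell lines in 1536-well plates were dosed by pin tool a day after seeding, alone with one drug or with a fixed anchor-drug dose plus five library-drug doses (not always all listed) in √10 steps, and nuclei were counted after 5 days.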

IU1-47 + Pictilisib = compound: CC1=CC(=C(N1C2=CC=C(C=C2)Cl)C)C(=O)CN3CCCCC3 [IU1-47] + CS(=O)(=O)N1CCN(Cc2cc3nc(-c4cccc5[nH]ncc45)nc(N4CCOCC4)c3s2)CC1 [Pictilisib] (partner 1 µM)
Summary of the method: as §1

FG-4592 + Tozasertib = compound: Cc1nc(C(=O)NCC(=O)O)c(O)c2ccc(Oc3ccccc3)cc12 [FG-4592] + Cc1cc(Nc2cc(N3CCN(C)CC3)nc(Sc3ccc(NC(=O)C4CC4)cc3)n2)n[nH]1 [Tozasertib] (partner 0.1 µM)
Summary of the method: as §1

FG-4592 + Olaparib = compound: Cc1nc(C(=O)NCC(=O)O)c(O)c2ccc(Oc3ccccc3)cc12 [FG-4592] + O=C(c1cc(Cc2n[nH]c(=O)c3ccccc23)ccc1F)N1CCN(C(=O)C2CC2)CC1 [Olaparib] (partner 8 µM)
Summary of the method: as §1

| Cell Line | relative viability (IU1-47 + Foretinib; first compound 0.08 µM) | relative viability (IU1-47 + Foretinib; first compound 0.253 µM) | relative viability (IU1-47 + Foretinib; first compound 0.8 µM) | relative viability (IU1-47 + Foretinib; first compound 2.53 µM) | relative viability (IU1-47 + Foretinib; first compound 8 µM) | relative viability (IU1-47 + Pictilisib; first compound 0.08 µM) | relative viability (IU1-47 + Pictilisib; first compound 0.253 µM) | relative viability (IU1-47 + Pictilisib; first compound 0.8 µM) | relative viability (IU1-47 + Pictilisib; first compound 2.53 µM) | relative viability (IU1-47 + Pictilisib; first compound 8 µM) | relative viability (FG-4592 + Tozasertib; first compound 0.08 µM) | relative viability (FG-4592 + Tozasertib; first compound 0.253 µM) | relative viability (FG-4592 + Tozasertib; first compound 0.8 µM) | relative viability (FG-4592 + Tozasertib; first compound 2.53 µM) | relative viability (FG-4592 + Tozasertib; first compound 8 µM) | relative viability (FG-4592 + Olaparib; first compound 0.08 µM) | relative viability (FG-4592 + Olaparib; first compound 0.8 µM) | relative viability (FG-4592 + Olaparib; first compound 2.53 µM) | relative viability (FG-4592 + Olaparib; first compound 8 µM) | relative viability (FG-4592 + Olaparib; first compound 0.253 µM) |
| --- | --- | --- | --- | --- | --- | --- | --- | --- | --- | --- | --- | --- | --- | --- | --- | --- | --- | --- | --- | --- |
| HCC-78 | 0.608 | 0.57 | 0.615 | 0.551 | 0.606 | 0.192 | 0.19 | 0.218 | 0.189 | 0.206 | 0.402 | 0.481 | 0.491 | 0.486 | 0.414 | 0.717 | 0.788 | 0.759 | 0.733 | – |
| NCI-H727 | 1.05 | 0.988 | 0.871 | 1.02 | 0.987 | 0.33 | – | 0.356 | 0.264 | 0.355 | 0.608 | 0.591 | 0.757 | 0.807 | 0.678 | 0.698 | 0.752 | 0.681 | 0.672 | 0.782 |
| NCI-H2087 | 1.26 | 1.14 | 1.31 | – | 1.18 | 0.884 | 0.865 | 1.11 | 0.452 | 0.83 | 0.234 | 0.205 | 0.279 | 0.175 | 0.269 | 0.561 | 0.645 | – | 0.475 | 0.51 |
| BEN | 0.618 | 0.676 | 0.646 | – | 0.61 | 0.644 | 0.566 | 0.583 | 0.41 | 0.594 | 0.564 | 0.459 | 0.475 | 0.676 | 0.452 | 1.13 | 1.07 | 1.02 | 0.956 | 0.99 |
| LCLC-103H | 0.786 | 0.864 | 0.846 | 0.73 | 0.865 | 0.586 | 0.566 | 0.624 | 0.509 | 0.639 | 0.42 | 0.529 | 0.572 | 0.557 | 0.411 | 0.746 | 0.695 | 0.708 | 0.751 | 0.751 |
| EKVX | 1.12 | 1.19 | 0.769 | 0.265 | 0.85 | 0.555 | 0.549 | 0.459 | 0.487 | 0.463 | 0.397 | 0.403 | 0.47 | 0.412 | 0.387 | 0.748 | 0.721 | 0.901 | 0.905 | 0.844 |
| LXF-289 | 1.01 | 1.06 | 1.1 | 0.967 | 0.902 | 0.8 | 0.754 | 0.772 | 0.822 | 0.688 | 0.186 | 0.16 | 0.214 | 0.177 | 0.205 | 1.09 | 1.07 | 1.01 | 1.1 | 0.961 |
| ABC-1 | 1.1 | 0.985 | 1.06 | – | 1.07 | 0.766 | 0.711 | 0.895 | – | 0.671 | 0.177 | 0.178 | 0.148 | 0.187 | 0.149 | 0.781 | – | 1.13 | 1.07 | 0.798 |
| NCI-H650 | 1.06 | 1.01 | 1.02 | 0.881 | 1.07 | 0.882 | 1 | 0.932 | 0.968 | 0.832 | 0.73 | 0.703 | 0.746 | 0.691 | 0.697 | 0.343 | 0.44 | 0.364 | 0.354 | 0.32 |
| NCI-H1650 | 1.05 | 1.17 | 1.1 | 1.4 | 0.886 | 0.634 | 0.587 | 0.682 | 0.295 | 0.27 | 0.409 | 0.277 | 0.427 | 0.456 | 0.406 | 0.786 | 0.843 | 0.781 | 0.869 | 0.721 |
| NCI-H2085 | 0.922 | 1.19 | 0.926 | 0.922 | 0.767 | 0.445 | 0.426 | 0.422 | 0.47 | 0.447 | 0.79 | 0.774 | 0.758 | 0.792 | 0.933 | 0.738 | 0.845 | 0.744 | 0.873 | 0.779 |
| NCI-H1793 | 0.75 | 0.764 | 0.765 | – | 0.688 | 0.284 | 0.293 | 0.363 | – | 0.262 | 0.435 | 0.388 | – | 0.362 | 0.317 | – | – | 0.827 | 0.71 | 0.727 |
| LC-2-ad | 1 | 1.07 | 0.908 | 0.794 | 0.878 | 0.428 | 0.509 | 0.427 | 0.423 | 0.45 | 0.545 | 0.433 | – | 0.421 | 0.465 | 0.683 | 0.725 | 0.755 | 0.782 | 0.694 |
| COR-L 105 | 0.907 | 1.14 | 1.22 | 1.2 | 1.4 | 0.421 | 0.411 | 0.352 | 0.379 | 0.396 | 0.348 | 0.375 | 0.359 | 0.297 | 0.35 | 0.767 | 0.792 | 0.719 | 0.635 | 0.787 |
| NCI-H1355 | 1.06 | 1.06 | 0.946 | – | 0.998 | 0.489 | 0.457 | 0.363 | 0.251 | 0.415 | 0.525 | 0.551 | 0.55 | 0.573 | 0.521 | 0.803 | – | 0.759 | 0.719 | 0.66 |
| H3255 | 0.858 | 0.958 | 1.44 | 0.368 | 0.832 | 0.542 | 0.431 | 0.488 | 0.537 | 0.522 | 0.718 | 0.626 | 0.608 | 0.601 | 0.642 | 0.586 | 0.611 | 0.629 | 0.622 | 0.546 |
| NCI-H1993 | 0.84 | 0.76 | 0.735 | 0.843 | 0.748 | 0.899 | 0.769 | 0.86 | 0.913 | 0.821 | 0.613 | 0.584 | 0.604 | 0.441 | 0.548 | 0.947 | – | 1.01 | 0.929 | 0.926 |
